What was measured:
HCC827 = experiment: Antiproliferative activity against human HCC827 cells assessed as reduction in cell viability after 72 hrs by MTT assay; format: functional, cell-based; details: HCC827, 72 h
NCI-H460 = experiment: Antiproliferative activity against human NCI-H460 cells assessed as reduction in cell viability after 72 hrs by MTT assay; format: functional, cell-based; details: NCI-H460, 72 h
NCI-H1975 = experiment: Antiproliferative activity against human NCI-H1975 cells assessed as reduction in cell viability after 72 hrs by MTT assay; format: functional, cell-based; details: NCI-H1975, 72 h
[1] = Antitumor activity against mouse C26 cells xenografted in BALB/c mouse assessed as tumor growth inhibition at 50 mg/kg, po administered once daily and measured every two days by caliper method relative to control; format: functional; details: 48 h, read-out: TGI
[2] = Toxicity in nude BALB/c mouse xenografted with C26 cells assessed as change in body weight at 50 mg/kg, po administered once daily and measured every two days; format: organism-based; details: in vivo
[3] = Antiproliferative activity against human SPCA1 cells expressing wild type EGFR assessed as reduction in cell viability after 72 hrs by MTT assay; format: functional, cell-based; details: SPCA1, 72 h
[4] = Metabolic stability in human liver microsomes assessed as half life; format: ADME, Microsome
[5] = Toxicity in nude BALB/c mouse xenografted with C26 cells assessed as abnormalities in lung size and morphology at 50 mg/kg, po administered once daily; format: organism-based; details: in vivo
[6] = Toxicity in nude BALB/c mouse xenografted with C26 cells assessed as abnormalities in kidney size and morphology at 50 mg/kg, po administered once daily; format: organism-based; details: in vivo
L929 = experiment: Cytotoxicity against mouse L929 cells; format: cell-based
[7] = Metabolic stability in human liver microsomes assessed as intrinsic clearance per gram protein; format: ADME, Microsome
A549 = experiment: Antiproliferative activity against human A549 cells expressing wild type EGFR assessed as reduction in cell viability after 72 hrs by MTT assay; format: functional, cell-based; details: A549, 72 h
[8] = Toxicity in nude BALB/c mouse xenografted with C26 cells assessed as abnormalities in liver size and morphology at 50 mg/kg, po administered once daily; format: organism-based; details: in vivo
[9] = Toxicity in nude BALB/c mouse xenografted with C26 cells assessed as abnormalities in heart size and morphology at 50 mg/kg, po administered once daily; format: organism-based; details: in vivo
NCI-H1650 = experiment: Antiproliferative activity against human NCI-H1650 cells expressing EGFR mutant assessed as reduction in cell viability after 72 hrs by MTT assay; format: functional, cell-based; details: NCI-H1650, 72 h
NCI-H441 = experiment: Antiproliferative activity against human NCI-H441 cells […] assessed as reduction in cell viability after 72 hrs by MTT assay; format: functional, cell-based; details: NCI-H441, 72 h

C=CCc1ccc(O)c(-c2cc(CC=C)cc(CN3CC[C@H](O)C3)c2O)c1
IC50 (HCC827): > 20 µM | IC50 (NCI-H460): > 20 µM | IC50 (NCI-H1975): > 20 µM

C=CCc1ccc(O)c(-c2cc(CC=C)cc(CN3CCC(NC(=O)CCCN)CC3)c2O)c1
IC50 (HCC827): > 20 µM | IC50 (NCI-H460): > 20 µM | IC50 (NCI-H1975): > 20 µM

C=CCc1ccc(O)c(-c2cc(CC=C)cc(CN3CCC[C@@H]3CO)c2O)c1
IC50 (HCC827): > 20 µM | IC50 (NCI-H460): > 20 µM | IC50 (NCI-H1975): > 20 µM

C=CCc1ccc(OC(C)C)c(-c2cc(CC=C)cc(CN3CCC(NC(=O)[C@@H](N)Cc4ccccc4)CC3)c2O)c1
inhibition in vivo at 50 mg/kg [1]: 62.4% | IC50 (HCC827): 0.85 µM | Activity [2]: Toxic | IC50 [3]: 1.35 µM | half-life [4]: 21.7 min | Activity [5]: Non-Toxic | Activity [6]: Non-Toxic | IC50 (L929): 6.24 µM | CLint [7]: 63.8 mL/min/g | IC50 (NCI-H460): 1.32 µM | IC50 (A549): 1.22 µM | Activity [8]: Non-Toxic | Activity [9]: Non-Toxic | IC50 (NCI-H1650): 1.68 µM | IC50 (NCI-H441): 2.04 µM | IC50 (NCI-H1975): 2.76 µM

C=CCc1ccc(OC)c(-c2cc(CC=C)cc(CN3CCC(N)CC3)c2O)c1
IC50 (HCC827): 3.44 µM | IC50 (NCI-H460): 4.27 µM | IC50 (NCI-H1975): 4.1 µM

C=CCc1ccc(OC(C)C)c(-c2cc(CC=C)cc(CN3CCC(NC(=O)[C@@H](N)CO)CC3)c2O)c1
IC50 (HCC827): 2.85 µM | IC50 (NCI-H460): 2.87 µM | IC50 (NCI-H1975): 5.71 µM

C=CCc1ccc(OCCCCCO)c(-c2cc(CC=C)cc(CN3CCC(N)CC3)c2O)c1
IC50 (HCC827): 8.71 µM | IC50 (NCI-H460): 10.2 µM | IC50 (NCI-H1975): 9.65 µM

C=CCc1ccc(O)c(-c2cc(CC=C)cc(CN3CC[C@H](N)C3)c2O)c1
IC50 (HCC827): > 20 µM | IC50 (NCI-H460): > 20 µM | IC50 (NCI-H1975): > 20 µM

C=CCc1ccc(O)c(-c2cc(CC=C)cc(CN3CCC(NC(=O)[C@@H](N)Cc4ccccc4)CC3)c2O)c1
IC50 (HCC827): 10.9 µM | IC50 (NCI-H460): 12.5 µM | IC50 (NCI-H1975): 11.3 µM

C=CCc1ccc(O)c(-c2cc(CC=C)cc(Cn3cc(N)cn3)c2O)c1
IC50 (HCC827): 15.4 µM | IC50 (NCI-H460): > 20 µM | IC50 (NCI-H1975): > 20 µM

C=CCc1ccc(OCCCCO)c(-c2cc(CC=C)cc(CN3CCC(N)CC3)c2O)c1
IC50 (HCC827): 7.39 µM | IC50 (NCI-H460): 8.78 µM | IC50 (NCI-H1975): 7.43 µM

C=CCc1ccc(OC(C)C)c(-c2cc(CC=C)cc(CN3CCC(N)CC3)c2OC(C)C)c1
IC50 (HCC827): 2.05 µM | IC50 (NCI-H460): 2.87 µM | IC50 (NCI-H1975): 4.14 µM

C=CCc1ccc(O)c(-c2cc(CC=C)cc(CCN3CCC(N)CC3)c2O)c1
IC50 (HCC827): > 20 µM | IC50 (NCI-H460): > 20 µM | IC50 (NCI-H1975): > 20 µM

C=CCc1ccc(O)c(-c2cc(CC=C)cc(CN3CCC(NC(=O)[C@@H](N)CC(C)C)CC3)c2O)c1
IC50 (HCC827): > 20 µM | IC50 (NCI-H460): > 20 µM | IC50 (NCI-H1975): > 20 µM

C=CCc1ccc(OCCCCCC)c(-c2cc(CC=C)cc(CN3CCC(N)CC3)c2O)c1
IC50 (HCC827): 12.5 µM | IC50 (NCI-H460): 9.46 µM | IC50 (NCI-H1975): 12.3 µM

C=CCc1ccc(OCCCC)c(-c2cc(CC=C)cc(CN3CCC(N)CC3)c2O)c1
IC50 (HCC827): 9.45 µM | IC50 (NCI-H460): 8.76 µM | IC50 (NCI-H1975): 10.4 µM

C=CCc1ccc(O)c(-c2cc(CC=C)cc(CN3CCC(NC(=O)[C@H](N)Cc4ccccc4)CC3)c2O)c1
IC50 (HCC827): 4.74 µM | IC50 (NCI-H460): 4.32 µM | IC50 (NCI-H1975): 4.08 µM

C=CCc1ccc(O)c(-c2cc(CC=C)cc(CN3CCC(NC(=O)[C@H](N)CC(C)C)CC3)c2O)c1
IC50 (HCC827): > 20 µM | IC50 (NCI-H460): > 20 µM | IC50 (NCI-H1975): > 20 µM

C=CCCOc1ccc(CC=C)cc1-c1cc(CC=C)cc(CN2CCC(N)CC2)c1O
IC50 (HCC827): 4.3 µM | IC50 (NCI-H460): 6.12 µM | IC50 (NCI-H1975): 12.2 µM

C=CCc1ccc(O)c(-c2cc(CC=C)cc(CN3CCC(NC(=O)[C@@H]4CCCN4)CC3)c2O)c1
IC50 (HCC827): > 20 µM | IC50 (NCI-H460): > 20 µM | IC50 (NCI-H1975): > 20 µM

C=CCc1ccc(O)c(-c2cc(CC=C)cc(CCCN3CCC(N)CC3)c2O)c1
IC50 (HCC827): > 20 µM | IC50 (NCI-H460): > 20 µM | IC50 (NCI-H1975): > 20 µM

C=CCc1ccc(O)c(-c2cc(CC=C)cc(CN3CCC(NC(=O)[C@@H](N)CO)CC3)c2O)c1
IC50 (HCC827): 6.24 µM | IC50 (NCI-H460): 6.57 µM | IC50 (NCI-H1975): 7.38 µM

C=CCc1ccc(OC(C)C)c(-c2cc(CC=C)cc(CN3CCC(NC(=O)[C@H](N)c4ccccc4)CC3)c2O)c1
IC50 (HCC827): 1.56 µM | IC50 (NCI-H460): 1.73 µM | IC50 (NCI-H1975): 4.21 µM

C=CCc1ccc(O)c(-c2cc(CC=C)cc(CN3CCC(NC(=O)CCN)CC3)c2O)c1
IC50 (HCC827): > 20 µM | IC50 (NCI-H460): > 20 µM | IC50 (NCI-H1975): > 20 µM

C=CCc1ccc(O)c(-c2cc(CC=C)cc(CCCCN3CCC(N)CC3)c2O)c1
IC50 (HCC827): > 20 µM | IC50 (NCI-H460): > 20 µM | IC50 (NCI-H1975): > 20 µM
